Test results reported in paper PMC6008299, “Impact of race on dose selection of molecular-targeted agents in early-phase oncology trials” (British Journal of Cancer, 2018).
Entries after “also recorded” stand apart in the source; their conditions may differ.

Legend:
[1] = test system: patients with advanced, refractory solid tumours; assay: Phase I dose-escalation study U101 (US): safety, DLT, MTD; format: in vivo
Excerpt: Studies were approved by the Institutional Review Board at the participating institutions and regulatory authorities. Written informed consent in English and Japanese was obtained from all patients prior to enrollment.
Secondary and exploratory objectives were to evaluate PK, tumour response, and PD effects. Treatment-emergent adverse events (TEAE) were graded using the Common Terminology Criteria for Adverse Events version 4.0. A dose-limiting toxicity (DLT) was defined as a grade ≥3 clinically significant toxicity, with the exceptions of grade ≥4 anaemia and prolonged grade 3 neutropenia. Both studies were open-label, phase I dose-escalation studies. In Japan, the study was conducted at a single centre, while the US study was conducted at three sites. […] In the US, an accelerated titration design was used at low doses followed by a mCRM with EWOC. Briefly, the dose was escalated based on safety data in a single patient until a grade 2 or higher toxicity was observed during cycle 1 or the DLT period (days 1–28). […] Prophylactic granulocyte colony-stimulating factor and antiemetics were not permitted during cycle 1.

[2] = test system: CYP2C8, CYP3A4, and CYP3A5; set-up: method as in printed; settings: stated in discussion, ref not given; cited from earlier work

Compound: CC(=O)N1CCN(c2nc3c(N4CCOCC4)nc(-c4cnc(N)nc4)nc3n2CC(F)(F)F)C[C@H]1C [DS-7423]
- AST increased (TEAE), n patients ([1]; 160 mg US cohort (n = 4)): 0
- Abdominal pain (TEAE), n patients ([1]; 160 mg US cohort (n = 4)): 1
- Back pain (TEAE), n patients ([1]; 160 mg US cohort (n = 4)): 0
- Blood creatinine increased (TEAE), n patients ([1]; 160 mg US cohort (n = 4)): 2
- Constipation (TEAE), n patients ([1]; 160 mg US cohort (n = 4)): 2
- Cough (TEAE), n patients ([1]; 160 mg US cohort (n = 4)): 0
- Decreased appetite (TEAE), n patients ([1]; 160 mg US cohort (n = 4)): 3
- Dehydration (TEAE), n patients ([1]; 160 mg US cohort (n = 4)): 1
- Diarrhoea (TEAE), n patients ([1]; 160 mg US cohort (n = 4)): 4
- Dry mouth (TEAE), n patients ([1]; 160 mg US cohort (n = 4)): 0
- Dysgeusia (TEAE), n patients ([1]; 160 mg US cohort (n = 4)): 1
- Dyspnea (TEAE), n patients ([1]; 160 mg US cohort (n = 4)): 0
- Edema (TEAE), n patients ([1]; 160 mg US cohort (n = 4)): 0
- Fatigue (TEAE), n patients ([1]; 160 mg US cohort (n = 4)): 4
- Hyperglycaemia (TEAE), n patients ([1]; 160 mg US cohort (n = 4)): 1
- Lung infection/ pneumonia (TEAE), n patients ([1]; 160 mg US cohort (n = 4)): 0
- Nausea (TEAE), n patients ([1]; 160 mg US cohort (n = 4)): 2
- Pyrexia (TEAE), n patients ([1]; 160 mg US cohort (n = 4)): 0
- Rash (TEAE), n patients ([1]; 160 mg US cohort (n = 4)): 0
- Stomatitis (TEAE), n patients ([1]; 160 mg US cohort (n = 4)): 1
- Vomiting (TEAE), n patients ([1]; 160 mg US cohort (n = 4)): 2
- Abdominal pain (TEAE), n patients ([1]; 240 mg US cohort (n = 9)): 4
- Back pain (TEAE), n patients ([1]; 240 mg US cohort (n = 9)): 3
- Blood creatinine increased (TEAE), n patients ([1]; 240 mg US cohort (n = 9)): 2
- Constipation (TEAE), n patients ([1]; 240 mg US cohort (n = 9)): 1
- Cough (TEAE), n patients ([1]; 240 mg US cohort (n = 9)): 0
- Decreased appetite (TEAE), n patients ([1]; 240 mg US cohort (n = 9)): 5
- Decreased appetite ≥G3, n patients ([1]; 240 mg US cohort (n = 9)): 1
- Dehydration (TEAE), n patients ([1]; 240 mg US cohort (n = 9)): 1
- Diarrhoea (TEAE), n patients ([1]; 240 mg US cohort (n = 9)): 5
- Dry mouth (TEAE), n patients ([1]; 240 mg US cohort (n = 9)): 3
- Dysgeusia (TEAE), n patients ([1]; 240 mg US cohort (n = 9)): 2
- Dyspnea (TEAE), n patients ([1]; 240 mg US cohort (n = 9)): 3
- Edema (TEAE), n patients ([1]; 240 mg US cohort (n = 9)): 1
- Fatigue (TEAE), n patients ([1]; 240 mg US cohort (n = 9)): 5
- Fatigue ≥G3, n patients ([1]; 240 mg US cohort (n = 9)): 1
- Hyperglycaemia (TEAE), n patients ([1]; 240 mg US cohort (n = 9)): 2
- Lung infection/ pneumonia (TEAE), n patients ([1]; 240 mg US cohort (n = 9)): 1
- Nausea (TEAE), n patients ([1]; 240 mg US cohort (n = 9)): 4
- Pyrexia (TEAE), n patients ([1]; 240 mg US cohort (n = 9)): 2
- Rash (TEAE), n patients ([1]; 240 mg US cohort (n = 9)): 0
- Stomatitis (TEAE), n patients ([1]; 240 mg US cohort (n = 9)): 5
- Stomatitis G3, n patients ([1]; 240 mg US cohort (n = 9)): 1
- Vomiting (TEAE), n patients ([1]; 240 mg US cohort (n = 9)): 3
- AST increased (TEAE), n patients ([1]; 240 mg US cohort (n = 9), cell marks ≥G3): 2, ≥G3
- AST increased (TEAE), n patients ([1]; 320 mg US cohort (n = 8)): 0
- Abdominal pain (TEAE), n patients ([1]; 320 mg US cohort (n = 8)): 0
- Back pain (TEAE), n patients ([1]; 320 mg US cohort (n = 8)): 0
- Blood creatinine increased (TEAE), n patients ([1]; 320 mg US cohort (n = 8)): 2
- Constipation (TEAE), n patients ([1]; 320 mg US cohort (n = 8)): 1
- Cough (TEAE), n patients ([1]; 320 mg US cohort (n = 8)): 1
- Decreased appetite (TEAE), n patients ([1]; 320 mg US cohort (n = 8)): 5
- Dehydration (TEAE), n patients ([1]; 320 mg US cohort (n = 8)): 3
- Dehydration G3, n patients ([1]; 320 mg US cohort (n = 8)): 1
- Diarrhoea (TEAE), n patients ([1]; 320 mg US cohort (n = 8)): 4
- Dry mouth (TEAE), n patients ([1]; 320 mg US cohort (n = 8)): 2
- Dysgeusia (TEAE), n patients ([1]; 320 mg US cohort (n = 8)): 5
- Dyspnea (TEAE), n patients ([1]; 320 mg US cohort (n = 8)): 2
- Edema (TEAE), n patients ([1]; 320 mg US cohort (n = 8)): 1
- Fatigue (TEAE), n patients ([1]; 320 mg US cohort (n = 8)): 6
- Fatigue G3, n patients ([1]; 320 mg US cohort (n = 8)): 1
- Hyperglycaemia (TEAE), n patients ([1]; 320 mg US cohort (n = 8)): 3
- Nausea (TEAE), n patients ([1]; 320 mg US cohort (n = 8)): 5
- Pyrexia (TEAE), n patients ([1]; 320 mg US cohort (n = 8)): 2
- Rash (TEAE), n patients ([1]; 320 mg US cohort (n = 8)): 3
- Stomatitis (TEAE), n patients ([1]; 320 mg US cohort (n = 8)): 1
- Vomiting (TEAE), n patients ([1]; 320 mg US cohort (n = 8)): 4
- Lung infection/ pneumonia (TEAE), n patients ([1]; 320 mg US cohort (n = 8), cell marks G3): 1, G3
- AST increased (TEAE), n patients ([1]; 2–28 mg US cohort (n = 10)): 3
- AST increased ≥G3, n patients ([1]; 2–28 mg US cohort (n = 10)): 1
- Abdominal pain (TEAE), n patients ([1]; 2–28 mg US cohort (n = 10)): 0
- Back pain (TEAE), n patients ([1]; 2–28 mg US cohort (n = 10)): 5
- Blood creatinine increased (TEAE), n patients ([1]; 2–28 mg US cohort (n = 10)): 0
- Constipation (TEAE), n patients ([1]; 2–28 mg US cohort (n = 10)): 3
- Cough (TEAE), n patients ([1]; 2–28 mg US cohort (n = 10)): 2
- Decreased appetite (TEAE), n patients ([1]; 2–28 mg US cohort (n = 10)): 3
- Dehydration (TEAE), n patients ([1]; 2–28 mg US cohort (n = 10)): 0
- Diarrhoea (TEAE), n patients ([1]; 2–28 mg US cohort (n = 10)): 5
- Dry mouth (TEAE), n patients ([1]; 2–28 mg US cohort (n = 10)): 3
- Dysgeusia (TEAE), n patients ([1]; 2–28 mg US cohort (n = 10)): 0
- Dyspnea (TEAE), n patients ([1]; 2–28 mg US cohort (n = 10)): 2
- Edema (TEAE), n patients ([1]; 2–28 mg US cohort (n = 10)): 2
- Fatigue (TEAE), n patients ([1]; 2–28 mg US cohort (n = 10)): 7
- Fatigue ≥G3, n patients ([1]; 2–28 mg US cohort (n = 10)): 2
- Hyperglycaemia (TEAE), n patients ([1]; 2–28 mg US cohort (n = 10)): 0
- Nausea (TEAE), n patients ([1]; 2–28 mg US cohort (n = 10)): 6
- Pyrexia (TEAE), n patients ([1]; 2–28 mg US cohort (n = 10)): 1
- Rash (TEAE), n patients ([1]; 2–28 mg US cohort (n = 10)): 2
- Stomatitis (TEAE), n patients ([1]; 2–28 mg US cohort (n = 10)): 1
- Vomiting (TEAE), n patients ([1]; 2–28 mg US cohort (n = 10)): 4
- Lung infection/ pneumonia (TEAE), n patients ([1]; 2–28 mg US cohort (n = 10), cell marks G3): 1, G3
- AST increased (TEAE), n patients ([1]; 48–80 mg US cohort (n = 11)): 1
- Abdominal pain (TEAE), n patients ([1]; 48–80 mg US cohort (n = 11)): 1
- Back pain (TEAE), n patients ([1]; 48–80 mg US cohort (n = 11)): 1
- Blood creatinine increased (TEAE), n patients ([1]; 48–80 mg US cohort (n = 11)): 0
- Constipation (TEAE), n patients ([1]; 48–80 mg US cohort (n = 11)): 0
- Cough (TEAE), n patients ([1]; 48–80 mg US cohort (n = 11)): 3
- Decreased appetite (TEAE), n patients ([1]; 48–80 mg US cohort (n = 11)): 2
- Diarrhoea (TEAE), n patients ([1]; 48–80 mg US cohort (n = 11)): 4
- Dry mouth (TEAE), n patients ([1]; 48–80 mg US cohort (n = 11)): 3
- Dysgeusia (TEAE), n patients ([1]; 48–80 mg US cohort (n = 11)): 2
- Dyspnea (TEAE), n patients ([1]; 48–80 mg US cohort (n = 11)): 1
- Edema (TEAE), n patients ([1]; 48–80 mg US cohort (n = 11)): 1
- Fatigue (TEAE), n patients ([1]; 48–80 mg US cohort (n = 11)): 5
- Fatigue ≥G3, n patients ([1]; 48–80 mg US cohort (n = 11)): 1
- Hyperglycaemia (TEAE), n patients ([1]; 48–80 mg US cohort (n = 11)): 2
- Lung infection/ pneumonia (TEAE), n patients ([1]; 48–80 mg US cohort (n = 11)): 0
- Nausea (TEAE), n patients ([1]; 48–80 mg US cohort (n = 11)): 6
- Pyrexia (TEAE), n patients ([1]; 48–80 mg US cohort (n = 11)): 2
- Rash (TEAE), n patients ([1]; 48–80 mg US cohort (n = 11)): 4
- Rash G3, n patients ([1]; 48–80 mg US cohort (n = 11)): 1
- Stomatitis (TEAE), n patients ([1]; 48–80 mg US cohort (n = 11)): 3
- Vomiting (TEAE), n patients ([1]; 48–80 mg US cohort (n = 11)): 3
- Dehydration (TEAE), n patients ([1]; 48–80 mg US cohort (n = 11), cell marks G3): 1, G3
- MTD ([1]; US study): 240 mg
- Grade 3 DLT ([1]; US study, 48 mg): rash
- Grade 3 DLT ([1]; US study, 240 mg): stomatitis; also recorded: fatigue and dehydration
- Patients with DLT ([1]; US study, of 34 DLT-evaluable patients): 4
- Involvement of CYP2C8, CYP3A4, and CYP3A5 in metabolism [2]: involved in the metabolism
